From patent US4748185A, “4-hydroxycoumarin derivatives” (priority 1985, dated 1988)
Like-named read-outs stand apart in the source and are kept apart here.

Columns and labels:
test animal (rat) = experiment: Acute oral LD50; type: in vivo; conditions: polyethylene glycol 200/triethanolamine 9:1 w/w
Method: For some compounds, LD50 data has also been generated, as follows.
Compounds were dissolved in a mixture of polyethylene glycol 200 and triethanolamine (9:1 w/w) and serially diluted with the same solvent system to given concentrations of: 10.0, 4.64, 2.15, 1.00, 0.464, 0.215, 0.10, milligrammes per milliliter (mgml^-1).
As these concentrations represent a known number of milligrammes per milliliter, administration of any solution to the test animal at the rate of 1 milliliter per 1 kilogramme of bodyweight delivers a dose (in mgkg^-1) numerically equivalent to the concentration of that solution.
Thus appropriate doses were a range of four consecutive oral doses from the series of concentration sufficient to cause low group mortality at the lowest dose, and high group mortality at the highest dose. Acute oral LD50 's were then determined by reference to the tables in Horns' paper "Simplified LD50 (or ED50) Calculations", Biometrics, 12, 311-322.

prothrombin time = experiment: Anticoagulant activity by measurement of the prothrombin time (3-day ED50, intraperitoneal, modified one-step method of Quick); type: in vivo, Wistar-strain male rats; conditions: Rattus norvegicus, S100, ip, 72 h, read-out: 3-day ED50
Method: Anticoagulant activity of the compounds of Examples 1 to 11 was determined by measurement of the prothrombin time, which is a measure of blood-clotting properties and is a reliable indicator of efficacy for an anticoagulant rodenticide. The procedure for measurement of prothrombin time is based on Quick et al, Am. J. Med. Sci., 190, 501 to 511, 1935.
Prothrombin times were determined according to the following specific procedures. Test compounds were dissolved in a mixture of polyethylene glycol 200 (i.e. polyethylene glycol of average molar mass 200) and triethanolamine (9:1 w/w) and serially diluted with the same solvent system to give concentrations of; 5.0, 2.5, 1.0, 0.9, 0.8, 0.7, 0.6, 0.5, 0.45, 0.40, 0.35, 0.30, 0.25, 0.2 and 0.1 milligrammes per milliliter (mgml^-1).
As these concentrations represent a known number of milligrammes per milliliter administration of any solution to the test animal at the rate of 1 milliliter per 1 kilogramme of bodyweight (eg. a 250 g rat is administered 0.25 ml) delivers a dose (in mg kg^-1) numerically equivalent to the concentration of that solution. In this instance the terms concentration and dose are synonymous.
Thus, appropriate doses were a range of at least three consecutive doses from the above series of concentrations which it was estimated would induce a range of prothrombin time elevations between 0 to 100% such that a dose-response curve could be constructed for that analogue.
The doses were injected into test animals (200 to 250 g Wistar-strain male rats) by the interperitoneal route. Three days after injection, blood was withdrawn by cardiac puncture whilst the animals were held under "Halothane" anaesthesia.
Three rats were used in each test of a particular compound and three prothrombin time determinations were carried out on each blood sample. Prothrombin times were determined using the modified one-step method of Quick. The percentage extension time of each prothrombin time was determined by assigning 0% extension time to an arbitrary prothrombin resting time of 12 seconds, and 100% extension time to a prothrombin time elevated to an arbitrary 212 seconds. Results were plotted on log-probability graph paper, the best-line fitted, and the prothrombin time ED50 read from the graph.

[1] = prothrombin time ED50, single intraperitoneal injection, male Wistar rats, blood taken three days after injection, 0% = 12 s, 100% = 212 s

SMILES: O=c1oc2ccccc2c(O)c1C1CC(c2ccc(-c3ccc(-c4ccccc4)cc3)cc2)Cc2ccccc21 (stereo not drawn) [Example 4, 3-[3-(4'-terphenyl-4-yl)-1,2,3,4-tetrahydro-1-naphthyl]-4-hydroxycoumarin]
- LD50 (test animal (rat)): 1.0 mg/kg
- ED50 (prothrombin time; [1]): 0.55 mg/kg

SMILES: N#Cc1ccc(COc2ccc(-c3ccc(C4Cc5ccccc5C(c5c(O)c6ccccc6oc5=O)C4)cc3)cc2)cc1 (stereo not drawn) [Example 2, 3-{3-[4'-(4-cyanobenzyloxy)biphenyl-4-yl]-1,2,3,4-tetrahydro-1-naphthyl}-4-hydroxycoumarin]
- ED50 (prothrombin time; [1]): 1.6 mg/kg

SMILES: O=c1oc2ccccc2c(O)c1C1CC(c2ccc(OCc3ccc(-c4ccc(Br)cc4)cc3)cc2)Cc2ccccc21 (stereo not drawn) [Example 6, 3-{3-[4-(4'-bromobiphenyl-4-ylmethoxy)phenyl]-1,2,3,4-tetrahydro-1-naphthyl}-4-hydroxycoumarin]
- ED50 (prothrombin time; [1]): 0.72 mg/kg

SMILES: CC(=O)CC(c1ccccc1)c1c(O)c2ccccc2oc1=O (stereo not drawn) [Warfarin, 3-(α-acetonylbenzyl)-4-hydroxycoumarin, reference compound]
- ED50 (prothrombin time; [1]): 5.2 mg/kg

SMILES: O=c1oc2ccccc2c(O)c1C1CC(c2ccc(Cc3ccc(-c4ccccc4)cc3)cc2)Cc2ccccc21 (stereo not drawn) [Example 10, 3-{3-[4-(biphenyl-4-ylmethyl)phenyl]-1,2,3,4-tetrahydro-1-naphthyl}-4-hydroxycoumarin]
- ED50 (prothrombin time; [1]): 0.52 mg/kg

SMILES: O=c1oc2ccccc2c(O)c1C1CC(c2ccc(-c3ccc(OCc4ccc(Br)cc4)cc3)cc2)Cc2ccccc21 (stereo not drawn) [Example 3, 3-{3-[4'-(4-bromobenzyloxy)biphenyl-4-yl]-1,2,3,4-tetrahydro-1-naphthyl}-4-hydroxycoumarin]
- LD50 (test animal (rat)): 0.4 to 1.0 mg/kg
- ED50 (prothrombin time; [1]): 0.74 mg/kg

SMILES: O=c1oc2ccccc2c(O)c1C1CC(c2ccc(-c3ccccc3)cc2)Cc2ccccc21 (stereo not drawn) [Difenacoum, reference compound]
- LD50 (test animal (rat)): 1.80 mg/kg
- ED50 (prothrombin time): 0.56 mg/kg

SMILES: O=c1oc2ccccc2c(O)c1C1CC(c2ccc(-c3ccc(OCc4ccc(C(F)(F)F)cc4)cc3)cc2)Cc2ccccc21 (stereo not drawn) [Example 1, 3-{3-[4'-(4-trifluoromethylbenzyloxy)biphenyl-4-yl]-1,2,3,4-tetrahydro-1-naphthyl}-4-hydroxycoumarin]
- LD50 (test animal (rat)): 0.32 to 0.4 mg/kg
- ED50 (prothrombin time; [1]): 0.4 mg/kg

SMILES: O=c1oc2ccccc2c(O)c1C1CC(c2ccc(Oc3ccc(-c4ccccc4)cc3)cc2)Cc2ccccc21 (stereo not drawn) [Example 11, 3-{3-[4-(biphenyl-4-yloxy)phenyl]-1,2,3,4-tetrahydro-1-naphthyl}-4-hydroxycoumarin]
- ED50 (prothrombin time; [1]): 0.55 mg/kg

SMILES: O=c1oc2ccccc2c(O)c1C1CC(c2ccc(OCc3ccc(-c4ccc(-c5ccccc5)cc4)cc3)cc2)Cc2ccccc21 (stereo not drawn) [Example 9, 3-{3-[4-(4-biphenyl-4-ylbenzyloxy)phenyl]-1,2,3,4-tetrahydro-1-naphthyl}-4-hydroxycoumarin]
- ED50 (prothrombin time; [1]): 0.49 mg/kg

SMILES: O=c1oc2ccccc2c(O)c1C1CC(c2ccc(Oc3ccc(-c4ccc(Cl)cc4)cc3)cc2)Cc2ccccc21 (stereo not drawn) [Example 7, 3-{3-[4-(4'-chlorobiphenyl-4-yloxy)phenyl]-1,2,3,4-tetrahydro-1-naphthyl}-4-hydroxycoumarin]
- ED50 (prothrombin time; [1]): 0.36 mg/kg

SMILES: O=c1oc2ccccc2c(O)c1C1CC(c2ccc(OCc3ccc(-c4ccccc4)cc3)cc2)Cc2ccccc21 (stereo not drawn) [Example 5, 3-{3-[4-(4-phenylbenzyloxy)phenyl]-1,2,3,4-tetrahydro-1-naphthyl}-4-hydroxycoumarin]
- LD50 (test animal (rat)): 0.4 to 1.0 mg/kg
- ED50 (prothrombin time; [1]): 0.4 mg/kg

SMILES: O=c1oc2ccccc2c(O)c1C1CC(c2ccc(Cc3ccc(-c4ccc(Br)cc4)cc3)cc2)Cc2ccccc21 (stereo not drawn) [Example 8, 3-{3-[4-(4'-bromobiphenyl-4-ylmethyl)phenyl]-1,2,3,4-tetrahydro-1-naphthyl}-4-hydroxycoumarin]
- ED50 (prothrombin time; [1]): 0.37 mg/kg
